Results from ChEMBL document CHEMBL5465560, “Selectivity Literature for EUbOPEN Chemogenomic Library” (2024).

Legend:
[1] = biological target: Ephrin type-A receptor 7 (Homo sapiens) (UniProt Q15375); experiment: Selectivity interaction (KinomeScan (DiscoverX)) EUB0000229b EPHA7; settings: at 10 µM
[2] = biological target: T1, Serine/threonine-protein kinase TNNI3K (Homo sapiens) (UniProt Q59H18); experiment: Selectivity interaction (KinomeScan (DiscoverX)) EUB0000595a TNNI3K; settings: at 10 µM
T1 sequence (whole entry): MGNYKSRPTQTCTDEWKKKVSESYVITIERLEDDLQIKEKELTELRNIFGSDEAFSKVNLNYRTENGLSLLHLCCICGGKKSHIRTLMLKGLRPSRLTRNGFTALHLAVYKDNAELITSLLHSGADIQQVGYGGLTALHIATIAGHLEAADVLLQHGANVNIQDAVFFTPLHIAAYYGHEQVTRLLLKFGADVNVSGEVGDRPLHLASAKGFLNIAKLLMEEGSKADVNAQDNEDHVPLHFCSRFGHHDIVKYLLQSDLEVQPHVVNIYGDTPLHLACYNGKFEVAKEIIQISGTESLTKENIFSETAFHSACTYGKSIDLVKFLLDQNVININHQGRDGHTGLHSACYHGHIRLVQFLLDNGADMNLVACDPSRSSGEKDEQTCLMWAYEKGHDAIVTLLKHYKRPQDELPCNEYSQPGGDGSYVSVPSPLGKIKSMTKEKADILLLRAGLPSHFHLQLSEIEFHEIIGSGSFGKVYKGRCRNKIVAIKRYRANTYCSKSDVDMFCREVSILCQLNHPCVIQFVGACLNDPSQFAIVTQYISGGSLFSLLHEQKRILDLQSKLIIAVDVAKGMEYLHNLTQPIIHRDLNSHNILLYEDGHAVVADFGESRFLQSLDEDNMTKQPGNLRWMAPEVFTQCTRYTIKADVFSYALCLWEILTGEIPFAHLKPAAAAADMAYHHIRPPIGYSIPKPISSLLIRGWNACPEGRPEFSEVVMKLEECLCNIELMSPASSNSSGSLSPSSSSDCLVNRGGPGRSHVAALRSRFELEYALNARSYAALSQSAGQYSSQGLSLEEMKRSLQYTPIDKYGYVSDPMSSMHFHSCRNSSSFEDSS

[3] = biological target: T2, Serine/threonine-protein kinase 17A (Homo sapiens) (UniProt Q9UEE5); experiment: Selectivity interaction (Kinase panel (DSF assay)) EUB0001559a STK17A
T2 sequence (whole entry): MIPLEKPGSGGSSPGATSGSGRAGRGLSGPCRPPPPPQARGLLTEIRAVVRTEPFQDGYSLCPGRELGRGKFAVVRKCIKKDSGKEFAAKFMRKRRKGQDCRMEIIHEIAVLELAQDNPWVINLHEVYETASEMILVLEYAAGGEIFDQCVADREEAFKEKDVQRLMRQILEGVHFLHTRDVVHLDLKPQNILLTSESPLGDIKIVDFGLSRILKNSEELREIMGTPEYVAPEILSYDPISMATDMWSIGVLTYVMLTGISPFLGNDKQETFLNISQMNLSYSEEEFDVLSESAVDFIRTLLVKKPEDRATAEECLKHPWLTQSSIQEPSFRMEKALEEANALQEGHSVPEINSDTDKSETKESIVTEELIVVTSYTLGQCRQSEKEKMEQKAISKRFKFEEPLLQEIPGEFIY

[4] = biological target: Serine/threonine-protein kinase OSR1 (Homo sapiens) (UniProt O95747); experiment: Selectivity interaction (LanthaScreen Eu Kinase Binding Assay) EUB0001632a OXSR1; settings: at 10 µM
Sequence of Serine/threonine-protein kinase OSR1 (Homo sapiens) (O95747 2-527 limits assumed): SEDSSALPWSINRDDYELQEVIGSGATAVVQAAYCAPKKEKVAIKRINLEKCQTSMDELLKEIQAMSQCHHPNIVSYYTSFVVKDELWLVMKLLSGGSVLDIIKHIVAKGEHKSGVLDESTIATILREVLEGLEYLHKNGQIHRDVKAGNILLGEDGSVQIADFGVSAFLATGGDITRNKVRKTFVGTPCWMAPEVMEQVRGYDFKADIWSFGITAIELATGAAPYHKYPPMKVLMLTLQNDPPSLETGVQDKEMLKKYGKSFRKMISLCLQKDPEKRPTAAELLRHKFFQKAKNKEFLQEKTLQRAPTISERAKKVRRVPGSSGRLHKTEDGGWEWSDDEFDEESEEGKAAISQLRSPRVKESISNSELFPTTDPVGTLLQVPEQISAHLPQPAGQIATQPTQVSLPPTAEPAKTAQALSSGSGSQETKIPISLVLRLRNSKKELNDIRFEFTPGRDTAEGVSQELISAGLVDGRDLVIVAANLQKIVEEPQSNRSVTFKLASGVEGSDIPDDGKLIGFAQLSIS

[5] = biological target: T3, Serine/threonine-protein kinase Sgk1 (Homo sapiens) (UniProt O00141); experiment: Selectivity interaction (Kinase panel (Z-LYTE Assay)) EUB0001632a SGK1; settings: at 10 µM
T3 sequence (whole entry): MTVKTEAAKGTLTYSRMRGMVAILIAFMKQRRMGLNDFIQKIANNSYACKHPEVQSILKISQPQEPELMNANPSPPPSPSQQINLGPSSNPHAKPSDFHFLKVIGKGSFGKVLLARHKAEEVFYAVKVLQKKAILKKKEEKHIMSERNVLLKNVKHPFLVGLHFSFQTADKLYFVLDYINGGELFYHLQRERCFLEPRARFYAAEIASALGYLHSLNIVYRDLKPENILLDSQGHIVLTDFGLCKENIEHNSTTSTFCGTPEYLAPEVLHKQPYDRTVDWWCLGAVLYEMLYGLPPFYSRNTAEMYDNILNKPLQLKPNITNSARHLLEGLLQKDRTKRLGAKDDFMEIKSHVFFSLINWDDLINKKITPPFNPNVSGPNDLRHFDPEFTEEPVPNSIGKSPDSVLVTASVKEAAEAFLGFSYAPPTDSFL

[6] = biological target: MAP/microtubule affinity-regulating kinase 3 (Homo sapiens) (UniProt P27448); experiment: Selectivity interaction (KinomeScan (DiscoverX)) EUB0000607a MARK3; settings: at 10 µM
Sequence of MAP/microtubule affinity-regulating kinase 3 (Homo sapiens) (P27448 whole entry, looked up): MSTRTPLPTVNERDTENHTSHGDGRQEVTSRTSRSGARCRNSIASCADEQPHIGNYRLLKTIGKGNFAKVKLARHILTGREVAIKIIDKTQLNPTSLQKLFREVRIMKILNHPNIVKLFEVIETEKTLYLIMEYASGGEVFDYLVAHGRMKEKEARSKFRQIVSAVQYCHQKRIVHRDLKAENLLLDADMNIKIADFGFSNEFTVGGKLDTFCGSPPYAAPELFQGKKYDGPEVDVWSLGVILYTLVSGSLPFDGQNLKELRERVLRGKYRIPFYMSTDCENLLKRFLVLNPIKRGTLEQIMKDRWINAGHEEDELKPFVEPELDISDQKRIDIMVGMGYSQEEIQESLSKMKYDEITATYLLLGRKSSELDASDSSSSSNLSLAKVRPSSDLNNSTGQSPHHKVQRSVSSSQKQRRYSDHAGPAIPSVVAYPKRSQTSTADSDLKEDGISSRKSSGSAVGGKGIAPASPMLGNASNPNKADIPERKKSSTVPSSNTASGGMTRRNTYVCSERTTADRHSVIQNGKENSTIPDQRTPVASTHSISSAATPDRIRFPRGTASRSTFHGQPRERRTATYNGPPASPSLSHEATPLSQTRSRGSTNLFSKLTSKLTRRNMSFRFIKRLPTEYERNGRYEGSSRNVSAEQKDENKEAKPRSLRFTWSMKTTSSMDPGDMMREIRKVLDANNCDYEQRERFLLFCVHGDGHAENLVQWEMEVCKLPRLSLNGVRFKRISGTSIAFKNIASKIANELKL

[7] = biological target: T4, Serine/threonine-protein kinase 4 (Homo sapiens) (UniProt Q13043); experiment: Selectivity interaction (Kinase panel (DSF assay)) EUB0001558a STK4
T4 sequence (whole entry): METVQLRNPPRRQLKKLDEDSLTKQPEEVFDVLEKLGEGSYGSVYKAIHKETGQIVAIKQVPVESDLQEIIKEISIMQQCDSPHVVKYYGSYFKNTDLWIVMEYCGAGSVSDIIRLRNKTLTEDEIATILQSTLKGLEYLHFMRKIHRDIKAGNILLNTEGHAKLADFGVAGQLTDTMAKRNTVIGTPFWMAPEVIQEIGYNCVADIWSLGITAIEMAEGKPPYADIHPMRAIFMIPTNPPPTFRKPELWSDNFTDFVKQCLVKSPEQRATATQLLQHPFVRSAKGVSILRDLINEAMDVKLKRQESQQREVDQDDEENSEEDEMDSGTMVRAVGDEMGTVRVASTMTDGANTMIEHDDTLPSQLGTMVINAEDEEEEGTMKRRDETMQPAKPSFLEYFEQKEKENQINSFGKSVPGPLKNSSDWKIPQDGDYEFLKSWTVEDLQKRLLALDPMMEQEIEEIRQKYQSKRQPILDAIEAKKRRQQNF

[8] = biological target: Ribosomal protein S6 kinase alpha-1 (Homo sapiens, UniProt Q15418); experiment: Selectivity interaction (Ambit KINOMEscan and KiNATiv profiling in Jurkat cells) EUB0000090b RPS6KA1; assay type: cell-based; settings: at 1 µM
Sequence of Ribosomal protein S6 kinase alpha-1 (Q15418 whole entry): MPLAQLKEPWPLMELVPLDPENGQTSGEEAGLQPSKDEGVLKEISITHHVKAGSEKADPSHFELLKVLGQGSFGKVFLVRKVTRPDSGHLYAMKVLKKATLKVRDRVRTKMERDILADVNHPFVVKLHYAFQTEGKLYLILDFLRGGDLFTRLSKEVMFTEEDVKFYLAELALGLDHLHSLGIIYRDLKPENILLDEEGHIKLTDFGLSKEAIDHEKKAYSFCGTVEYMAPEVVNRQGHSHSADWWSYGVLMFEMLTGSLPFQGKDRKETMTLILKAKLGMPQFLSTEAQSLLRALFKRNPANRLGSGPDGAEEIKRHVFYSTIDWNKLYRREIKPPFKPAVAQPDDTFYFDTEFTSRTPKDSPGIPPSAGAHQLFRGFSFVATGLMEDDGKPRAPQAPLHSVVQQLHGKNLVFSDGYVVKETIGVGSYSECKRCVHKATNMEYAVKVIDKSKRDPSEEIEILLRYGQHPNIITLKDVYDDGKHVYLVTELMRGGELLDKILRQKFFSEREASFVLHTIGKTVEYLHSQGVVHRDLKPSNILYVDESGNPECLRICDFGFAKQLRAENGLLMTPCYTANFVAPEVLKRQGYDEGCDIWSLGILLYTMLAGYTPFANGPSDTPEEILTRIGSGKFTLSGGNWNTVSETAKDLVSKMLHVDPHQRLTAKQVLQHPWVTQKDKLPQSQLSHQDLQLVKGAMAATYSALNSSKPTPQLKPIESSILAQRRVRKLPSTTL

Sequence of Ephrin type-A receptor 7 (Homo sapiens) (Q15375 28-998 limits assumed): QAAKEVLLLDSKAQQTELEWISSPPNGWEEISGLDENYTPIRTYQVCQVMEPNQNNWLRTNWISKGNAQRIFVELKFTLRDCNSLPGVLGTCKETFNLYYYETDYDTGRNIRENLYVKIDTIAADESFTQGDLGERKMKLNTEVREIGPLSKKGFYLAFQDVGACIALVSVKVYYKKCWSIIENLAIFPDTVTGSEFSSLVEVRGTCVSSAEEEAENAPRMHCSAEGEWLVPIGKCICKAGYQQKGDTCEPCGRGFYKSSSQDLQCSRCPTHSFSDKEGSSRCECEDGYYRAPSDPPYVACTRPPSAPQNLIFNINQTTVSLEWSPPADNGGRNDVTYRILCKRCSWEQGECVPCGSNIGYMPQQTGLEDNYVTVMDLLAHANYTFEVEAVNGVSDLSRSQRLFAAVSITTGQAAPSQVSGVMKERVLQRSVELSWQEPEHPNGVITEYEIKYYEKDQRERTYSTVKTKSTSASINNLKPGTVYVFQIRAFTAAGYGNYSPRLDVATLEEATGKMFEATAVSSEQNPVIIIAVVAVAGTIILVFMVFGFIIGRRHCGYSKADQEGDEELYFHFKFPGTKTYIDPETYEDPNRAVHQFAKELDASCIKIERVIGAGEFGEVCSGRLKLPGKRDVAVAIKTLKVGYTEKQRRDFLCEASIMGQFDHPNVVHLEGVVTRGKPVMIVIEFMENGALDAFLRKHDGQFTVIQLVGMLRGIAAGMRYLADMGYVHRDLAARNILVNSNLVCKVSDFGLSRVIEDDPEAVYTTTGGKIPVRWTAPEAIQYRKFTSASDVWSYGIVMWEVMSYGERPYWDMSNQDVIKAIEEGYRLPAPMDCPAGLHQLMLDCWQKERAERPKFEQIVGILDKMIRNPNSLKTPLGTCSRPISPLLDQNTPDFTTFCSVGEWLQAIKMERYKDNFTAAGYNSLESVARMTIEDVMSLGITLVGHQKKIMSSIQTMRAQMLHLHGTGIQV

Which % binding [1] does the source give for `COc1cc(N(C)c2ccnc3ccc(C(F)(F)F)cc23)cc(OC)c1OC` here?
Its % binding is 99%.

How did the % of control [2] turn out when `COCC(=O)NC/C=C/c1ccc2ncnc(Nc3ccc(Oc4ccc(C)nc4)c(C)c3)c2c1` [CP-724714] was run?
Its % of control is 100%.

For `CN(C(=O)c1cnn2cccnc12)c1cc2c(cc1N1CCOCC1)C(=O)N(C[C@@H](F)C(C)(C)O)C2`, which dTM [3] is on record?
Its dTM is -0.1 K.

What does the source list for `Cn1cc(-n2cnc3c(NCc4nc5cc(Cl)c(Cl)cc5[nH]4)nc(N4CCOCC4)nc32)cn1`?
% of inhibition [4]: -23%; % of control [5]: 28%

Which % of control [6] does the source give for `CNC(=O)Nc1ccc(-c2nc(N3CC4CCC(C3)O4)c3cnn(C4CCC5(CC4)OCCO5)c3n2)cc1` here?
Its % of control is 92%.

`CC(C)(O)[C@H](F)CN1Cc2cc(NC(=O)c3cnn4cccnc34)c(N3CCOCC3)cc2C1=O` was tested. Which dTM [7] did it give?
The dTM was 1.9 K.

`CN(C)C/C=C/C(=O)Nc1ccc(C(=O)N2CCCC(Nc3ncc(Cl)c(-c4c[nH]c5ccccc45)n3)C2)cc1` (stereo not drawn) was tested. Which % of control [8] did it give?
Its % of control is 14%.
